Reference: patent publication US20230151432A1, “KIF18A INHIBITORS FOR TREATMENT OF NEOPLASTIC DISEASES” (AMGEN INC., priority 2020, published 2023)

Experiments:
[1] = test system: OVCAR-8 tumors; experiment: OVCAR-8 Tumor Xenograft Efficacy Study (IP); type: in vivo, mouse
Procedure: (§1) Animals were dosed IP daily with vehicle alone, C9 (50 or 100 mg/kg), or C12 (25 or 50 mg/kg). […] Tumor volume and body weight assessment performed as described above. After the final dose on day 46, plasma pharmacokinetic analysis was performed as described above except blood was drawn by retro-orbital bleed method.

[2] = target: T1, mouse KIF18A (residues 1-467) (Mus musculus, UniProt Q91WD7); experiment: KIF18A MT-ATPase motor activity, ADP-Glo luminescence assay (Example 19); type: biochemical; conditions: mouse KIF18A 4 nM, 30 μM ATP; read-out: IC50, KIF18A motor activity (MT-ATPase)
T1 construct: mouse KIF18A (residues 1-467, 4 nM); made in house
Procedure: A trio of KIF18A inhibitors (Compound C9, Compound C11, and Compound C12) were synthesized and tested in vitro for KIF18A inhibitory activity. […] The values represent mean t SEM from three independent experiments. […] As in vivo studies in mice were planned, the mouse KIF18A inhibitory effects of Compound C9 and C12 were assayed.
KIF18A compounds C9, C11, C12 were 2-fold serially diluted over a 22-point concentration range in DMSO using 384-well plate (Corning). Recombinant truncated kinesin motor proteins (human KIF18A (residues 1-467, 4 nM), mouse KIF18A (residues 1-467, 4 nM)) were expressed and purified. ADP-Glo luminescence assay (Promega) was used to measure the MT-ATPase motor activity. Porcine brain MTs were procured from Cytoskeleton Inc. Compounds were pre-incubated for <30 min in reaction buffer (15 mM Tris, pH 7.5, 10 mM MgCl2, 0.01% Pluronic F-68, 2% DMSO, 1 μM paclitaxel, 30 μg/mL MTs) with motor proteins at concentrations indicated above, 30 μM ATP was added to initiate the enzymatic reaction for 15 min at room temperature (RT). ADP-Glo reagents were added according to manufactures protocol, the luminescence intensity proportional to ADP present was measured using an EnVision plate reader (Perkin Elmer). Raw luminescence signal data was normalized to POC (percentage of positive control) and then Activity (%) was computed [POC=100×(sample signal−negative control signal)+(positive control signal−negative control signal). Activity (%)=POC−100]. The positive control (enzyme+substrate) and negative control (substrate alone) had equivalent concentrations of DMSO. Curve-fitting and IC50 values were determined by 4-parameter non-linear regression equation (variable slope) using GraphPad Prism 7.05 (GraphPad Software).

[3] = Terminal plasma pharmacokinetic analysis in tumor-bearing mice; type: in vivo, mouse
Procedure: Data was graphed using GraphPad Prism 7.05.
Tumor volume and body weight assessment performed as described above. After the final dose on day 36, plasma pharmacokinetic analysis was performed as described above. All data analysis was performed as described above.
as §1

[4] = test system: BT-549 TNBC cells; experiment: Western blot and cGAS/γH2A.X immunostaining (Example 8); type: cell-based, human; conditions: 0.2 μM, 48 hours
Procedure: In order to analyze the effects on mitosis, BT-549 TNBC cells were seeded into 6-well plates at a density of 100,000 per well in 3 replicate wells in 4 mL of complete growth media. The next day, cells were treated with DMSO, KIF18A inhibitor #1 (Compound C11, 0.5 μM), or KIF18A inhibitor #2 (Compound C9, 0.01 μM) in 4 mL of complete media at a final DMSO concentration of 0.5%. After 48 hours, cell lysates were prepared for each treatment group (combined media and cells from 3 wells) using Minute™ Total Protein Extraction kit (SD-001, Invent Biotechnologies) lysis conditions according to manufactures protocol, supplemented with protease inhibitor cocktail (cOmplete™, Roche) and phospatase inhibitors (PhosphoStop, Roche). Primary antibodies included rabbit anti-p-Histone H3 (serine-10) (06-570, Millipore, 1: 2000), mouse anti-γH2A.X (serine-139) (05-636, Millipore, 1: 2000), mouse anti-cleaved-PARP (cl-PARP) (#51-900017, BD Pharmingen, 1:500), mouse anti-BubR1 (612503, BD Pharmingen, 1:5000), mouse anti-total HEC1 (ab3613, ABCAM, 1: 1000), rabbit anti-pHEC1(serine-55) (GTX70017, Genetex, 1: 500), and rabbit anti-GAPDH (2118, Cell Signaling, 1:10,000).
Also, cGAS and γH2A.X (serine-139) immunostaining in BT-549 TNBC cells was carried out. […] Wide-field images were captured using 40×objective on upright Nikon Eclipse NI-E epi-fluorescence microscope running Elements software.

T1 sequence (Q91WD7 1-467): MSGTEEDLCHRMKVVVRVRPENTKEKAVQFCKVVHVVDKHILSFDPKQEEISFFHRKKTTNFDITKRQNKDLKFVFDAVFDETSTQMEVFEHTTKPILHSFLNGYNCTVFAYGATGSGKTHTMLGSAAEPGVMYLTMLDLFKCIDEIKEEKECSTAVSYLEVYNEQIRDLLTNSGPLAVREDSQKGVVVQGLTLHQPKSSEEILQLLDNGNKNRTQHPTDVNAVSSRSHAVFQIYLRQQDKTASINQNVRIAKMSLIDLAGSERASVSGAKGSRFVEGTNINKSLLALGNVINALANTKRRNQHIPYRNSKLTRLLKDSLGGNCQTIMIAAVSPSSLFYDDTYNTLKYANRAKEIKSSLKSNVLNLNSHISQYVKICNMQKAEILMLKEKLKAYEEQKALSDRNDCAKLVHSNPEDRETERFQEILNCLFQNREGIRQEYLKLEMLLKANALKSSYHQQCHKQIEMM
T1 sequence (P02550 whole entry partner, the tested form may be a part): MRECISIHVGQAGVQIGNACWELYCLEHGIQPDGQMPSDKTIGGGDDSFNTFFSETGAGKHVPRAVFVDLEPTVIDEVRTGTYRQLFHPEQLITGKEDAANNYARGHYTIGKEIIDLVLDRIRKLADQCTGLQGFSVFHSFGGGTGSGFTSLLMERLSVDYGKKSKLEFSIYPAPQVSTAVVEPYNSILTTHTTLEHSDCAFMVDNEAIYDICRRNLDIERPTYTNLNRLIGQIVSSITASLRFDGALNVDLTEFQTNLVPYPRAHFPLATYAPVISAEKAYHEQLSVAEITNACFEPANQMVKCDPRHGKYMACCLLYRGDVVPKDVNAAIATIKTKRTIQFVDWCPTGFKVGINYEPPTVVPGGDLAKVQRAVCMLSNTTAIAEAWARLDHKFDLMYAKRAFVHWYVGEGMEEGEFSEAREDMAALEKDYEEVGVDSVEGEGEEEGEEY
T1 sequence (P02554 whole entry partner, the tested form may be a part): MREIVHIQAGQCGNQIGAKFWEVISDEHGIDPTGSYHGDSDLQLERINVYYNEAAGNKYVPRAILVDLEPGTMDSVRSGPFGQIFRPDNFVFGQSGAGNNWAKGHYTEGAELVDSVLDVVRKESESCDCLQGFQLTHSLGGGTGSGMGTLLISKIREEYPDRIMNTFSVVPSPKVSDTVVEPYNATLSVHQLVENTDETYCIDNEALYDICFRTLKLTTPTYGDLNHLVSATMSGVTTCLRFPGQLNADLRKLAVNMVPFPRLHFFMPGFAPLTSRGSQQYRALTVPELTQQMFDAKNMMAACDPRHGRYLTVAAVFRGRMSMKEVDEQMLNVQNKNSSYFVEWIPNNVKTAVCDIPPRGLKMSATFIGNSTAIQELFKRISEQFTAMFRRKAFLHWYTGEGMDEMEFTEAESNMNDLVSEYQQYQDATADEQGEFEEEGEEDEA

CC(C)(C)NS(=O)(=O)c1cccc(NC(=O)c2ccc(S(=O)(=O)NC(C)(C)C)cc2N2CCC3(CC2)CC3)c1 [Compound C9, 4-(N-(tert-butyl)sulfamoyl)-N-(3-(N-(tert-butyl)sulfamoyl)phenyl)-2-(6-azaspiro[2.5]octan-6-yl)benzamide]
tumor regression ([1]; 50 mg/kg IP once daily for 18 consecutive days): 16%
tumor regression ([1]; 100 mg/kg IP once daily for 18 consecutive days): 73%
IC50 [2]: 232 nM
PK profiles across studies ([3]; OVCAR-3, CAL-51, OVCAR-8 studies): comparable across studies
AUC ([3]; nude, mouse, plasma, OVCAR-3 study, 100 mg/kg IP, after the final dose): 130 µM·h
cGAS and γH2A.X staining of cytoplasmic micronuclei [4]: increase in DNA damage and cGAS positive micronuclei
